Data published in BindingDB's records for patent US20240262835 (Antengene Discovery, 2024).

Biological target: Methylosome protein 50/Protein arginine N-methyltransferase 5 (Homo sapiens, UniProt O14744)
Assay: PRMT5/MEP50 HotSpot Methyltransferase Assay
Procedure: Table 2: The assay used recombinant full-length histone H2A as the substrate of PRMT5. Enzymatic transfer of the tritiated methyl group from S-adenosyl-L-[methyl-3H]methionine (3H-SAM) to the histone H2A protein generated a radiolabeled histone H2A by measuring in a scintillation counter to determine the activity of PRMT5 enzyme in the presence and absence of compound. The assay reactions were conducted in the presence of 100 nM MTA. Briefly, compounds were solubilized in 100% DMSO at the highest concentration of 10 mM. […] Control samples lacking compound, PRTM5/MEP50 complex or various reaction components also were prepared and processed in parallel with compound test samples. SAH was used as a positive control for assay validation. To measure PRMT5 inhibitory activity, 1 nM PRTM5/MEP50 complex was preincubated with test compound in assay buffer containing 5 μM full-length histone H2A for 15 minutes at room temperature. The enzymatic reaction was initiated by adding 1 μM 3H-SAM (final concentration) and the mixture was incubated at 30° C. for 1 hour. The reaction was stopped and transferred to filter paper for detection. The amount of tritiated H2A in each sample was determined using a scintillation counter.

Chain of Methylosome protein 50/Protein arginine N-methyltransferase 5 (O14744 whole entry): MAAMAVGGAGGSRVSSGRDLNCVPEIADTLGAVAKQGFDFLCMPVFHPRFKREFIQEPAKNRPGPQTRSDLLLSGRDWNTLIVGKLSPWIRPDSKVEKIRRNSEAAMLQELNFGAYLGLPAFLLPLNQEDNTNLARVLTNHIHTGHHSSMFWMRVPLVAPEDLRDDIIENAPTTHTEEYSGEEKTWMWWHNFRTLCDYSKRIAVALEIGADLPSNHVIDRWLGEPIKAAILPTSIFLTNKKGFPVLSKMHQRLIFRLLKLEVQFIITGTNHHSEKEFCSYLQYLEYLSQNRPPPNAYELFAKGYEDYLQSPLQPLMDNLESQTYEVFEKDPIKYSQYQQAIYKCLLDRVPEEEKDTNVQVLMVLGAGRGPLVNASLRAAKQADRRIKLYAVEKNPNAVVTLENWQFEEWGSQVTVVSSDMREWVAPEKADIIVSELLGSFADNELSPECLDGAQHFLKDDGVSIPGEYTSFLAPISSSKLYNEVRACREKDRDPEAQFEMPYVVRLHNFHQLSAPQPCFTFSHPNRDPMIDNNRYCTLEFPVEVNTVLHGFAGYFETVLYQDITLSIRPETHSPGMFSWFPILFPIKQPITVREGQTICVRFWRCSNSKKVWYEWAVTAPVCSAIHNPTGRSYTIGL
Chain of Methylosome protein 50/Protein arginine N-methyltransferase 5 (Q9BQA1 whole entry, further chain): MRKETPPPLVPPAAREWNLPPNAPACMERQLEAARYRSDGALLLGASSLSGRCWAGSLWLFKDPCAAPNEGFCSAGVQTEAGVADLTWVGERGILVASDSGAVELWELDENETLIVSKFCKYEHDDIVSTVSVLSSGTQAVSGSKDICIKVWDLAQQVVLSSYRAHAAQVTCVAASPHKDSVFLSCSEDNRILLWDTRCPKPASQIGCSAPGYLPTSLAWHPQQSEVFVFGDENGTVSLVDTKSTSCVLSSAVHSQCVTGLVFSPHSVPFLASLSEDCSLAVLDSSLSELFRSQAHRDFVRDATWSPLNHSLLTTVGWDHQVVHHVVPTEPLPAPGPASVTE

| SMILES | IC50 [nM] |
| --- | --- |
| C[C@H](c1ncccn1)N(Cc1ccc(C(F)(F)F)cn1)C(=O)c1cc2c(cn1)nc(N)c1cncn12 [US20240262835, Compound 10] | 379 |
| C[C@H]1CC[C@H](c2ccc3c(c2)CCC(=O)N3)N(C(=O)c2ccc3nc(N)c4cncn4c3c2)C1 [US20240262835, Compound 4] | 6 |
| Cn1ncc(-c2ccc3c(c2)nc(N)c2cncn23)c1-c1c(F)cc2ccccc2c1C#N [US20240262835, Compound 1] | 8 |
| C[C@H](c1ncccn1)N(Cc1ccc(C(F)(F)F)cn1)C(=O)c1ccc2nc(N)n3cncc3c2c1 [US20240262835, Compound 5] | 81 |
| C[C@H](c1ncccn1)N(Cc1ccc(C(F)(F)F)cn1)C(=O)c1cc2c(cc1F)nc(N)c1cncn12 [US20240262835, Compound 6] | 101 |
| C[C@H](c1ncccn1)N(Cc1ccc(C(F)(F)F)cn1)C(=O)c1ccc2nc(N)c3cncn3c2c1 [US20240262835, Compound 3] | 64 |
